Measurements published in patent publication US6964772B1, “Chitosan-xanthan based polyionic hydrogels for stabilization and controlled release of vitamins” (Kemestrie Inc., priority 1998, dated 2005).

Assay: Determination of the Vitamin C stability in the cream base at 45° C.
Assay type: physicochemical
Details: cream with 5-25 wt % Vitamin C, after 30 days at 45° C., protected from light
Experimental: The method consists of introducing 20 to 30 mg of freeze-dried CHITOXAN™ loaded with Vitamin C in a 50 ml centrifuge tube together with 40 ml of the extraction solvent. The mixture is magnetically stirred for 60 minutes. The suspension formed is centrifuged (4000 rpm) and the supernatant is analysed. All operations are done in absence of light.
This determination requires the establishment of a calibration curve at a maximum absorption wavelength using a UV-vis spectrophotometer. A standard is prepared with the same solution (and solvent) initially used to introduce the Vitamin C within the CHITOXAN™. Experimentation has shown an absorption maximum at 243 nm for Vitamin C at 98% purity obtained from ALDRICH.
The calibration curve is constructed at 243 nm as follows. A solution of 1.3 mg/ml of Vitamin C in the solvent is prepared in a graduated cylinder. The solution is prepared just before analysis. By successive dilutions, the absorption versus concentration calibration curve (mg/ml) is thus measured.
The concentration of Vitamin C in the supernatant obtained via extraction is determined at 243 nm using the calibration curve. […]
10 g of the preparation obtained by inclusion of CHITOXAN™—Vit. […] Samples not immediately analysed were kept frozen at −4° C.
The aliquots were analysed with the method described earlier (always using the extraction solvent). […]

O=C1O[C@H]([C@@H](O)CO)C(O)=C1O [free Vitamin C, Vitamin C]
coloration of the cream: an orange coloration appeared | degradation of Vitamin C: 98%
